25 compounds from ChEMBL document CHEMBL3877259, “Design and discovery of 4-anilinoquinazoline-urea derivatives as dual TK inhibitors of EGFR and VEGFR-2” (Eur J Med Chem, 2017) can be followed below.

Assay [1] concerns the target Vascular endothelial growth factor receptor 2 (Homo sapiens, UniProt P35968). The experiment in a line: Inhibition of N-terminal GST-tagged human VEGFR-2 cytoplasmic domain (790 to 1356 residues) expressed in baculovirus expression system preincubated for 10 mins followed by FAM-labelled peptide substrate addition by caliper mobility shift assay.
Assay [2] in a line: Antiproliferative activity against human HT-29 cells measured after 48 hrs by MTT assay. The format is functional, cell-based. To be noted: HT-29, 48 h. On the technique in general: Formazan colour is commonly taken as a measure of viable cells.
Assay [3] is described as follows: Antiproliferative activity against human MCF7 cells measured after 48 hrs by MTT assay. The class given is functional, cell-based. To be noted: MCF7, 48 h.
A short description of assay [4]: Antiproliferative activity against human H460 cells measured after 48 hrs by MTT assay. The class given is functional, cell-based. The settings on record: NCI-H460, 48 h.
Assay [5] deals with Epidermal growth factor receptor (Homo sapiens, UniProt P00533).

For orientation: IC50 means the concentration that inhibits the measured activity by half.

Chain of Epidermal growth factor receptor (P00533 whole entry): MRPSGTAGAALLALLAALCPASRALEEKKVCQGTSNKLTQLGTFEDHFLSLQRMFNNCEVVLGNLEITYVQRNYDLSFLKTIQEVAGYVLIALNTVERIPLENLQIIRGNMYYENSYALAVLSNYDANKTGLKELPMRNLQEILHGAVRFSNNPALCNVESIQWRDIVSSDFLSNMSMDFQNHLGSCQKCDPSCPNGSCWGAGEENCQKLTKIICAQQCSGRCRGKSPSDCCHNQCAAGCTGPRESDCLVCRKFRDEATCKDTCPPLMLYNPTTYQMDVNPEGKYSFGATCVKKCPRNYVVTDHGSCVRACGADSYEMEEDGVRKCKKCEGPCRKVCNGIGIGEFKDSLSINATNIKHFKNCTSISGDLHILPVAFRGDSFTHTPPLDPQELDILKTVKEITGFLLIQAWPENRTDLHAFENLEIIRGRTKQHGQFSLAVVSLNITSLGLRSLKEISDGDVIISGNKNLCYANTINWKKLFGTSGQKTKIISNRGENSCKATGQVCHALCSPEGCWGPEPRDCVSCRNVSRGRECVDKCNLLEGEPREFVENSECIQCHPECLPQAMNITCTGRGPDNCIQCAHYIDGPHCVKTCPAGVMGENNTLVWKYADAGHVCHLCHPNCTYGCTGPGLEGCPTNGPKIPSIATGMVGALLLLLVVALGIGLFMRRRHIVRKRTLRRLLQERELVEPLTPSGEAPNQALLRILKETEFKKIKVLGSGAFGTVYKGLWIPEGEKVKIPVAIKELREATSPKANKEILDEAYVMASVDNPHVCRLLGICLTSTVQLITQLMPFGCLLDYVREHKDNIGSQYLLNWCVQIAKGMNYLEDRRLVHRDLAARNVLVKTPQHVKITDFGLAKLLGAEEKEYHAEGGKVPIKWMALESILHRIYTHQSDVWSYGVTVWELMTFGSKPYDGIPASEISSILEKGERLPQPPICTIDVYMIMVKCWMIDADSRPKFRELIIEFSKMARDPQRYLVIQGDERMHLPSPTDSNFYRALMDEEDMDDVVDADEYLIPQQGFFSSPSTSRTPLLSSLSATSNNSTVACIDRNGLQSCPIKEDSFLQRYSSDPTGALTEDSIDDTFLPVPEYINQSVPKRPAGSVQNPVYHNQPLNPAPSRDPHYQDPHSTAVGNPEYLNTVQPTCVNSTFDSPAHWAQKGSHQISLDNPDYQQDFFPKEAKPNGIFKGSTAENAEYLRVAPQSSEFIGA
Chain of Vascular endothelial growth factor receptor 2 (P35968 whole entry, the tested form may be a part): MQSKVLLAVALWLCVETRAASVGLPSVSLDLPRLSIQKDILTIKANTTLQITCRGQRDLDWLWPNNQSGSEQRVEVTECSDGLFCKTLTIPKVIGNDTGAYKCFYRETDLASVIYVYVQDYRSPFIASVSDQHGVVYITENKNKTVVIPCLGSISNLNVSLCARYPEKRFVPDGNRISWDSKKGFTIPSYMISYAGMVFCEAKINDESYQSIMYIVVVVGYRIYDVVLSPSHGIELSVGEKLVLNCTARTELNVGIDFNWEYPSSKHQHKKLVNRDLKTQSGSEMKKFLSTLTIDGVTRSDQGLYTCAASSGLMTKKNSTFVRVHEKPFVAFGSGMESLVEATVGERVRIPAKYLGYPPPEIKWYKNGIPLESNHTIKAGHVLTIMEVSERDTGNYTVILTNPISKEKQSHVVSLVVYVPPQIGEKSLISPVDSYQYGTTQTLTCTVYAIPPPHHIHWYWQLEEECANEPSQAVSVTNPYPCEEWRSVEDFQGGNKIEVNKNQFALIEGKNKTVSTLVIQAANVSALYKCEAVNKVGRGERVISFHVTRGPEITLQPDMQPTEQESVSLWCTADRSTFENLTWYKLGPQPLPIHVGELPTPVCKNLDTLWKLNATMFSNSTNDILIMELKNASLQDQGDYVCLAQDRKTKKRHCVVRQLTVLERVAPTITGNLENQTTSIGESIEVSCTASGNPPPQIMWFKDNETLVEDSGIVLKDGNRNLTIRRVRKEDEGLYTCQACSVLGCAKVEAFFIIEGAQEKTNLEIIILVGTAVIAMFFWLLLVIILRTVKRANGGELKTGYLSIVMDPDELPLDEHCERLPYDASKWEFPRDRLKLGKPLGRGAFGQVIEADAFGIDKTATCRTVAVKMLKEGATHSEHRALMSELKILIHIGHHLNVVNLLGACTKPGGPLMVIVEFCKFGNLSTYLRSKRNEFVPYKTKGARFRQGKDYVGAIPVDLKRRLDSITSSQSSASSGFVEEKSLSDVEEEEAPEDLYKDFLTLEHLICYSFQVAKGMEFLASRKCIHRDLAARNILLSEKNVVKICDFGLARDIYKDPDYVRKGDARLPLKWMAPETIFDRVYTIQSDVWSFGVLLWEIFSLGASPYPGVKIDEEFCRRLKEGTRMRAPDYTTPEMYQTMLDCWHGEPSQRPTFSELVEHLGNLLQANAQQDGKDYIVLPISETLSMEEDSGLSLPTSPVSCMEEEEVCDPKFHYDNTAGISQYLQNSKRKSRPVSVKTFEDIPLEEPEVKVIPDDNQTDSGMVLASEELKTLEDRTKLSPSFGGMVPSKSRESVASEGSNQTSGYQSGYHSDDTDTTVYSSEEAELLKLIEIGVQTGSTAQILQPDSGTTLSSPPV

As to `COc1cc2c(Nc3ccc(NC(=O)Nc4ccc(Cl)cc4)c(Cl)c3)ncnc2cc1OCCCN1CCN(C)CC1`, the IC50 in assay [1] was 0.279 µM; in assay [2] it was 20.7 µM; in assay [3] it was above 50 µM; in assay [4], 28 µM; in assay [5] it was 0.001 µM.
`COc1cc2c(Nc3ccc(NC(=O)Nc4cccc(Cl)c4)cc3)ncnc2cc1OCc1ccccc1`: the IC50 was above 10 µM in assay [1]; above 50 µM in assay [2]; above 50 µM in assay [3]; above 50 µM in assay [4]; 4.65 µM in assay [5].
Consider `COc1cc2c(Nc3ccc(NC(=O)Nc4ccccc4C)c(Cl)c3)ncnc2cc1OCCCN1CCN(C)CC1`, for which the IC50 in assay [1] was 0.178 µM; in assay [2], 4.81 µM; in assay [3], 6.21 µM; in assay [4] it was above 50 µM.
Turning to `COc1cc2c(Nc3ccc(NC(=O)Nc4ccc(C)c(C)c4)cc3)ncnc2cc1OCCCN1CCN(C)CC1`, the IC50 in assay [1] was determined as 0.214 µM; in assay [2] it was 25.9 µM; in assay [3] it was 36.5 µM; in assay [4] it was 22 µM; in assay [5], 0.668 µM.
On the same counts, the results for `COc1cc2c(Nc3ccc(NC(=O)Nc4ccc(Cl)cc4)cc3)ncnc2cc1OCc1ccccc1` are above 10 µM, above 50 µM, above 50 µM, 38.8 µM and above 10 µM.
For `COc1cc2c(Nc3ccc(NC(=O)Nc4ccc(C)c(C)c4)cc3)ncnc2cc1OCc1ccccc1`, the IC50 in assay [1] is above 10 µM; in assay [2], above 50 µM; in assay [3], above 50 µM; in assay [4], 49.6 µM; in assay [5] it was above 10 µM.
Regarding `COc1cc2c(Nc3ccc(NC(=O)Nc4ccc(C)c(C)c4)c(Cl)c3)ncnc2cc1OCCN1CCCCC1`, the IC50 in assay [1] is 0.018 µM; in assay [2] it was 1.85 µM; in assay [3], 1.27 µM; in assay [4], 2.9 µM; in assay [5], 0.817 µM.
Consider `COC(=O)CNC(=O)c1ccc(Nc2ncnc3cc(OCCN4CCCCC4)c(OC)cc23)cc1`, for which the IC50 was 0.966 µM in assay [1], above 50 µM in assay [2], 8.39 µM in assay [3] and above 50 µM in assay [4].
For `COc1cc2c(Nc3ccc(NC(=O)Nc4ccc(Cl)cc4)cc3)ncnc2cc1OCCCN1CCN(C)CC1`, the IC50 in assay [1] is 0.815 µM; in assay [2], 28.7 µM; in assay [3], above 50 µM; in assay [4], 17.8 µM; in assay [5], 0.235 µM.
On the same counts, the results for `COc1cc2c(Nc3ccc(NC(=O)Nc4ccc(C)cc4)cc3)ncnc2cc1OCc1ccccc1` are above 10 µM, above 50 µM, above 50 µM, 25.4 µM and above 10 µM.
As to `COC(=O)CNC(=O)c1ccc(Nc2ncnc3cc(OCCCN4CCN(C)CC4)c(OC)cc23)cc1`, the IC50 is 0.275 µM in assay [1]; above 50 µM in assay [2]; above 50 µM in assay [3]; above 50 µM in assay [4]; 0.611 µM in assay [5].
Regarding `COc1cc2/c(=N/c3ccc(Br)cc3F)nc[nH]c2cc1OCC1CCN(C)CC1` [VANDETANIB], the figures for the IC50 in assay [2], in assay [3] and in assay [4] were 18.9 µM, 11.8 µM and 37.1 µM, respectively.
As for `COc1cc2c(Nc3ccc(NC(=O)Nc4ccc(C)c(C)c4)c(Cl)c3)ncnc2cc1OCCCN1CCN(C)CC1`, the IC50 in assay [1] turned out to be 0.079 µM; in assay [2] it was 1.76 µM; in assay [3], 7.28 µM; in assay [4] it was 26 µM; in assay [5] it was 0.001 µM.
As for `COc1cc2c(Nc3ccc(NC(=O)Nc4ccc(Cl)cc4)c(Cl)c3)ncnc2cc1OCCN1CCCCC1`, the IC50 in assay [1] is above 10 µM; in assay [2], 4.38 µM; in assay [3], 1.89 µM; in assay [4], 5 µM; in assay [5], above 10 µM.
Regarding `COc1cc2c(Nc3ccc(NC(=O)Nc4ccccc4C)cc3)ncnc2cc1OCCCN1CCN(C)CC1`, the IC50 is 1.99 µM in assay [1]; above 50 µM in assay [2]; 32.2 µM in assay [3]; 22.3 µM in assay [4]; 0.502 µM in assay [5].
On the same counts, the results for `COc1cc2c(Nc3ccc(NC(=O)Nc4ccccc4)c(Cl)c3)ncnc2cc1OCCCN1CCN(C)CC1` are 0.261 µM, 17.3 µM, above 50 µM, 33 µM and 0.014 µM.
Regarding `COc1cc2c(Nc3ccc(NC(=O)Nc4cccc(Cl)c4)cc3)ncnc2cc1OCCCN1CCN(C)CC1`, the half-inhibitory concentration (IC50) in assay [1] amounted to 0.588 µM; in assay [2], 22.9 µM; in assay [3], 24.7 µM; in assay [4], 8.16 µM; in assay [5], 0.5 µM.
For the compound `COc1cc2c(Nc3ccc(NC(=O)Nc4ccc(C)c(C)c4)c(Cl)c3)ncnc2cc1OCCCN1CCOCC1`, the IC50 was 0.014 µM in assay [1]; 7.29 µM in assay [2]; 2.63 µM in assay [3]; 3.52 µM in assay [4]; 0.051 µM in assay [5].
In the case of `COc1cc2c(Nc3ccc(NC(=O)Nc4ccccc4C)cc3)ncnc2cc1OCc1ccccc1`, the IC50 in assay [1] was above 10 µM; in assay [2], 28.8 µM; in assay [3], above 50 µM; in assay [4], 23.9 µM; in assay [5], above 10 µM.
In the case of `COc1cc2c(Nc3ccc(NC(=O)Nc4ccc(Cl)cc4)c(Cl)c3)ncnc2cc1OCCCN1CCOCC1`, the IC50 in assay [1] was found to be 0.528 µM; in assay [2], 22 µM; in assay [3], 39.2 µM; in assay [4], 28 µM; in assay [5], 0.017 µM.
Take `COc1cc2c(Nc3ccc(NC(=O)Nc4ccc(F)c(Cl)c4)c(Cl)c3)ncnc2cc1OCCCN1CCN(C)CC1`: the IC50 in assay [1] came to 0.014 µM; in assay [2], 6.41 µM; in assay [3], 3.2 µM; in assay [4] it was 12.1 µM; in assay [5] it was 0.078 µM.
With `COc1cc2c(Nc3ccc(NC(=O)Nc4ccccc4)cc3)ncnc2cc1OCCCN1CCN(C)CC1`, the IC50 in assay [1] was found to be 0.576 µM; in assay [2], 49.4 µM; in assay [3], 29.1 µM; in assay [4], 28.4 µM; in assay [5] it was 0.194 µM.
Regarding `COC(=O)CNC(=O)c1ccc(Nc2ncnc3cc(OCCCN4CCOCC4)c(OC)cc23)cc1`, the IC50 in assay [1] was 0.404 µM; in assay [2] it was above 50 µM; in assay [3] it was above 50 µM; in assay [4] it was above 50 µM; in assay [5], 0.763 µM.
As to `COc1cc2c(Nc3ccc(NC(=O)Nc4ccccc4)cc3)ncnc2cc1OCc1ccccc1`, the IC50 in assay [1] is above 10 µM; in assay [2], above 50 µM; in assay [3], 22.8 µM; in assay [4] it was above 50 µM; in assay [5] it was 2.93 µM.
As to `COc1cc2c(Nc3ccc(NC(=O)Nc4ccccc4)c(Cl)c3)ncnc2cc1OCCN1CCCCC1`, the IC50 is 1.87 µM in assay [1]; above 50 µM in assay [2]; above 50 µM in assay [3]; above 50 µM in assay [4]; 0.212 µM in assay [5].
